Reference: patent US10816552B2 (The Governing Council of the University of Toronto, priority 2014, dated 2020)

Tests used:
[1] = 1H NMR stability of Telox-2 in D2O (0.01% dDMSO); assay type: physicochemical
Source text: To investigate the stability of Telox-2 compared to Telox ^1H NMR spectra of Telox-2 were collected over a period of 1 week under biologically-relevant conditions (0.01% dDMSO in D2O).

[2] = UV-Vis stability of Telox-2 in aqueous buffer; assay type: physicochemical; settings: 200 μM, 0.01% DMSO in phosphate-buffered saline
Procedure: Concentration of Telox-2=200 μM (0.01% DMSO in phosphate-buffered saline). The small spectrum identifies the unique absorptions of the tellurophene and nitroimidazole functionalities.
An orthogonal stability assay using UV-Vis spectroscopy was performed to corroborate the NMR stability findings (FIG. 6). In this assay, UV-Vis spectra of Telox-2 were recorded at a fixed concentration in aqueous buffer over a period of 3 days. Loss of either heterocycle, tellurophene or nitroimidazole, as a result of degradation would be expected to cause a decrease in absorbance at 282 and/or 325 nm respectively.

[3] = test system: HCT116 cells; test: Mass cytometry hypoxia labelling (130Te signal); assay type: cell-based
Source text: FIGS. 4A-E show a schematic representation and density maps and plots. FIG. 4A is a schematic representation of Telox/Telox2 cell labelling for analysis via mass cytometry on a second-generation CyTOF instrument. FIG. 4b) is a density map of signal event length vs. ^130Te signal (arbitrary units). FIG. 4c) is a density plot output from the top-right gate in b) of ^193Ir signal (arbitrary units) vs. ^103Rh signal (arbitrary units). More than 93% of detected events fall in the square gate. FIG. 4d) is a density plot output from the bottom-left gate in b) of ^193Ir signal (arbitrary units) vs. ^103Rh signal (arbitrary units). More than 89% of detected events fall in the square gate. FIG. 4e) is a population histograms of cell ^130Te content (arbitrary units). Oxygen concentrations are listed as numerical percentages, P=Pimonidazole (100 μM). Blue and red histograms are Pimonidazole-negative controls. Orange and green histograms are Pimonidazole- positive competition experiments. Note: warmer colors in density plots indicate higher cell population density.
FIGS. 8A and B show a) the absolute ^130Te signal as a function of concentration as determined by mass cytometry analysis of HCT116 cells incubated with the exemplary compound, Telox-2, for 3 hours in either near-anoxic (˜0% O2), hypoxic (˜1% O2) or normoxic (21% O2) atmosphere; and b) the signal-to-noise (fold-change) representation of the data presented in part a.
FIGS. 9A-D show a) Absolute ^130Te signal as a function of time as determined by mass cytometry analysis of HCT116 cells incubated with 10 μM of the exemplary compound,Telox-2 (constant exposure), in either near-anoxic (˜0% O2), hypoxic (˜1% O2) or normoxic (21% O2) atmosphere; b) the signal-to-noise (fold-change) representation of the data presented in part a; and c) the absolute ^130Te signal as a function of time as determined by mass cytometry analysis of HCT116 cells incubated with 10 μM Telox-2 for 3 hours followed by replacement of Telox-2-containing media with fresh media in either near-anoxic (˜0% O2), hypoxic (˜1% O2) or normoxic (21% O2) atmosphere; and d) the signal-to-noise (fold-change) representation of the data presented in part c.
HCT116 (500,000) cells were seeded in 60 mm plastic petri dishes (Corning Inc., NY) and incubated for 24 h at 37° C., 21% O2/5% CO2. The cells were transferred to hypoxia chambers (H35/H85 hypoxia workstation, Don Whitley Scientific) maintained at 1%/0.2% or <0.02% O2 for 3 h. Hypoxia experiments (<0.02% O2) were performed by seeding the cells in 60 mm glass plates (Corning Inc., NY).
HCT 116 cells (see sections i and ii) were incubated in media containing Telox or Telox2 (100 μM, added as a neat solution in sterile DMSO; final [DMSO]=0.1%) for 3 hours under atmosphere containing an appropriate concentration of O2. Following incubation, the media was removed, cells were washed with sterile PBS, and then separated from the incubation plate via trypsinization (37° C., 10 min) and gentle scraping. The cell suspension was pelleted and resuspended in PBS containing β-ME (1.0 mL, 100 mM). Cells were pelleted, resuspended in PBS (900 μL, no β-ME), and fixed with formaldehyde (100 μL, 37% solution) for 25 minutes. Following fixation, cells were pelleted, resuspended in PBS containing β-ME (1.0 mL, 100 mM), and pelleted once again. Cells were then resuspended in PBS ([…], no β-ME) and incubated with either the Ir-containing nucleic acid intercalator (hypoxic cells) or the Rh containing nucleic acid intercalator (normoxic cells) (10 μL, 100 μM solution in sterile PBS) for 20 minutes. Cells were then pelleted and resuspended in PBS (1.0 mL, no β-ME) twice. Cell pellets were then resuspended in PBS containing ^151/153EU beads (1/10 dilution of CyTOF® calibration beads, DVS Sciences, 1.0-2.5 mL depending on pellet size). The two cells samples were then combined (250 μL of each) and 250 μL of the resultant sample was injected onto a second-generation CyTOF® instrument for MC analysis. […]

SMILES: O=[N+]([O-])c1nccn1CCc1ccc[te]1 [Telox-2, 2-nitro-1-(2-(tellurophen-2-yl)ethyl)-1H-imidazole]
- degradation by 1H NMR over 1 week ([1]; 0.01% dDMSO in D2O, 1 week, 200 μM): no observable degradation
- aggregate or micelle formation in aqueous solution (1H NMR peak broadening) ([1]; high concentrations (2 mM)): does not form aggregates or micelles
- change in absorbance at 282 and/or 325 nm over 3 days [2]: No change in absorbance
- signal-to-noise vs incubation time, constant exposure ([3]; HCT116, 10 μM, near-anoxic and moderately hypoxic vs normoxic control): enhanced as incubation time increases
- signal-to-noise under moderately hypoxic conditions vs near-anoxic ([3]; HCT116, 1% O2): significantly lower
- loss of probe-protein conjugates after pulsed exposure ([3]; HCT116, 3 hours exposure then fresh media up to additional 21 hours): exponential-type decay
- optimal probe concentration to maximize signal-to-noise ([3]; HCT116, 3 hours, normoxic vs near-anoxic): 10 µM
